Test results: patent US20230390274A1 (EPIRIUM BIO INC., priority 2020, published 2023)

target: 15-PGDH/HPGD (Homo sapiens (Human), UniProt P15428); assay: hPGDH inhibitor screening biochemical assay; conditions: 10 nM 15-PGDH/HPGD, 15 μM PGE2, 0.25 mM NAD; read-out: hPGDH: Average IC50
Protocol: A hydroxyprostaglandin dehydrogenase inhibition screening biochemical assay can be performed to assess the synthesized inhibitors provided herein. Provided herein is an exemplary biochemical assay for hPGDH inhibitor screening.
The in vitro biochemical assay can be performed in white, 384 plates in total 20 μl reaction volume consisting of 10 nM of 15-PGDH/HPGD (R&D System #5660-DH), 15 μM Prostaglandin E2 (Sigma, Cat #P5640-10MG) and 0.25 mM β-Nicotinamide adenine dinucleotide sodium salt (Sigma, Cat #N0632-5G) made in reaction buffer (50 mM Tris-HCl, pH 7.5, 0.01% Tween 20) at 10-point dose response curve for test/tool compounds. Briefly, 5 μl (4×) of compounds solution and 5 μl (final concentration, 10 nM) of enzyme solution is added to white 384 well plates and incubated for 10 mins at 37° C. 5 μl (4×) of Prostaglandin E2 and 5 μl (4×) of β-Nicotinamide adenine dinucleotide sodium salt is added to the wells and incubated for 10 mins at rt. Fluorescence is recorded at ex/em=340 nm/485 nm. The percentage (%) inhibition of enzyme activity was determined relative to […] (1% DMSO) and IC50 was calculated using GraphPad prism software (four parameter-variable slope equation).

15-PGDH/HPGD, sequence (P15428 whole entry): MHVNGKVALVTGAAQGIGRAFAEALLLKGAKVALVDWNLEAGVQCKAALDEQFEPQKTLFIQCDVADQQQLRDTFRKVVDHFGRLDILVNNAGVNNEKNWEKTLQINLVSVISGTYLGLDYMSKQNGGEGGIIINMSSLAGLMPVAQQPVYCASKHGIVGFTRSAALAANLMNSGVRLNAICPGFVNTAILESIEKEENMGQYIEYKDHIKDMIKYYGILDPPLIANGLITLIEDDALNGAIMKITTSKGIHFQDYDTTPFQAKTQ

Compound | IC50 [nM]
O=C(c1cnc2c(c1)ncn2-c1ccc(OC(F)(F)F)cc1)N1CCCCC1 [A-182] | < 100
CCOc1ccc(-n2cnc3cc(C(=O)N4CCCCC4)cnc32)cc1 [A-186] | < 100
N#Cc1ccc(-n2cnc3cc(C(=O)N4CCC(F)(F)CC4)cnc32)cc1 [A-193] | < 100
N#Cc1ccc(-n2cnc3cc(C(=O)N4CC(Cl)C4)cnc32)cc1 [A-194] | < 100
NC(=O)c1ccc(-n2cnc3cc(C(=O)N4CCC(F)(F)CC4)cnc32)cc1 [A-195] | < 100
COc1ccc(-n2c(C)nc3cc(C(=O)N4CCCCC4)cnc32)cc1 [A-197] | < 100
COc1ccc(-n2c(CCNC(C)=O)nc3cc(C(=O)N4CCC(F)CC4)cnc32)cc1 [A-198] | ≥ 1000
Cc1c(C(=O)N2CCC(F)CC2)cnc2c1ccn2-c1ccc(C(N)=O)cc1 [A-202, 4-(5-(4-fluoropiperidine-1-carbonyl)-4-methyl-1H-pyrrolo[2,3-b]pyridin-1-yl)benzamide] | < 100
NC(=O)c1ccc(-n2cc(Cl)c3cc(C(=O)N4CCC(F)CC4)cnc32)cc1 [A-203, 4-(3-chloro-5-(4-fluoropiperidine-1-carbonyl)-1H-pyrrolo[2,3-b]pyridin-1-yl)benzamide] | < 100
NC(=O)c1ccc(-n2cc(Cl)c3cc(C(=O)N4CCCCC4)cnc32)cc1 [A-204, 4-(3-chloro-5-(piperidine-1-carbonyl)-1H-pyrrolo[2,3-b]pyridin-1-yl)benzamide] | < 100
Cc1c(C(=O)N2CCC(F)CC2)cnc2c1ccn2-c1ccc(C#N)cc1 [A-206, 4-(5-(4-fluoropiperidine-1-carbonyl)-4-methyl-1H-pyrrolo[2,3-b]pyridin-1-yl)benzonitrile] | < 100
N#Cc1ccc(-n2cc(Cl)c3cc(C(=O)N4CCC(F)CC4)cnc32)cc1 [A-207] | < 100
Cc1cc(-n2ccc3cc(C(=O)N4CCCCC4)cnc32)cnc1N [A-208] | < 100
Nc1ncc(-n2ccc3cc(C(=O)N4CCCCC4)cnc32)cc1Cl [A-209] | < 100
C[C@@H]1C[C@H](C)CN(C(=O)c2cnc3c(ccn3-c3ccc(C(N)=O)cc3)c2)C1 [A-210, 4-(5-((3R,5S)-3,5-dimethylpiperidine-1-carbonyl)-1H-pyrrolo[2,3-b]pyridin-1-yl)benzamide] | < 100
O=C(c1cnc2c(ccn2-c2ccc3[nH]ncc3c2)c1)N1CCC(F)(F)CC1 [A-211] | < 100
N/C(=N\O)c1ccc(-n2ccc3cc(C(=O)N4CCCCC4)cnc32)cc1 [A-212] | < 100
N/C(=N\O)c1cccc(-n2ccc3cc(C(=O)N4CCCCC4)cnc32)c1 [A-213] | < 100
Cc1nc(-c2cccc(-n3ccc4cc(C(=O)N5CCCCC5)cnc43)c2)no1 [A-214] | < 100
CC(C)(C)C(=O)NCCNC(=O)c1ccc(-n2ccc3cc(C(=O)N4CCC(F)(F)CC4)cnc32)cc1 [A-215, 4-(5-(4,4-difluoropiperidine-1-carbonyl)-1H-pyrrolo[2,3-b]pyridin-1-yl)-N-(2-pivalamidoethyl)benzamide] | < 100
CC(C)NC(=O)c1ccc(-n2ccc3cc(C(=O)N4CCC(F)(F)CC4)cnc32)cc1 [A-216] | < 100
CC(C)(C)CNC(=O)c1cncc(-n2ccc3cc(C(=O)N4CCC(F)(F)CC4)cnc32)c1 [A-217, 5-(5-(4,4-difluoropiperidine-1-carbonyl)-1H-pyrrolo[2,3-b]pyridin-1-yl)-N-neopentylnicotinamide] | < 100
CC(C)(C)NC(=O)c1ccc(-n2ccc3cc(C(=O)N4CCC(F)(F)CC4)cnc32)cn1 [A-218, N-(tert-butyl)-5-(5-(4,4-difluoropiperidine-1-carbonyl)-1H-pyrrolo[2,3-b]pyridin-1-yl)picolinamide] | < 100
CCC(CC)NC(=O)c1cncc(-n2ccc3cc(C(=O)N4CCC(F)(F)CC4)cnc32)c1 [A-219, 5-(5-(4,4-difluoropiperidine-1-carbonyl)-1H-pyrrolo[2,3-b]pyridin-1-yl)-N-(pentan-3-yl)nicotinamide] | < 100

Compound | IC50 [nM]
CS(=O)(=O)NCCNC(=O)c1ccc(-n2ccc3cc(C(=O)N4CCC(F)(F)CC4)cnc32)cc1 [A-220, 4-(5-(4,4-difluoropiperidine-1-carbonyl)-1H-pyrrolo[2,3-b]pyridin-1-yl)-N-(2-(methylsulfonamido)ethyl)benzamide] | < 100
NCCNC(=O)c1ccc(-n2ccc3cc(C(=O)N4CCC(F)(F)CC4)cnc32)cc1 [A-221, N-(2-aminoethyl)-4-(5-(4,4-difluoropiperidine-1-carbonyl)-1H-pyrrolo[2,3-b]pyridin-1-yl)benzamide] | < 100
O=C(NC(CO)CO)c1ccc(-n2ccc3cc(C(=O)N4CCC(F)(F)CC4)cnc32)cc1 [A-222] | < 100
O=C(NCCO)c1ccc(-n2ccc3cc(C(=O)N4CCC(F)(F)CC4)cnc32)cc1 [A-223] | < 100
N#Cc1ccc(-n2ccc3cc(C(=O)N4C[C@H](F)C[C@H](F)C4)cnc32)cc1 [A-224, 4-(5-((3R,5S)-3,5-difluoropiperidine-1-carbonyl)-1H-pyrrolo[2,3-b]pyridin-1-yl)benzonitrile] | < 100
CCNC(=O)c1ccc(-n2ccc3cc(C(=O)N4CCC(F)(F)CC4)cnc32)cc1 [A-225] | < 100
O=C(NC1CCNCC1)c1ccc(-n2ccc3cc(C(=O)N4CCC(F)(F)CC4)cnc32)cc1 [A-226] | < 100
O=C(NC1CNC1)c1ccc(-n2ccc3cc(C(=O)N4CCC(F)(F)CC4)cnc32)cc1 [A-227] | < 100
O=C(O)Cc1ccc(-n2ccc3cc(C(=O)N4CCC(F)(F)CC4)cnc32)cc1 [A-230, 2-(4-(5-(4,4-difluoropiperidine-1-carbonyl)-1H-pyrrolo[2,3-b]pyridin-1-yl)phenyl)acetic acid] | < 100
CS(=O)(=O)NC(=O)c1ccc(-n2ccc3cc(C(=O)N4CCC(F)(F)CC4)cnc32)cc1 [A-232, 4-(5-(4,4-difluoropiperidine-1-carbonyl)-1H-pyrrolo[2,3-b]pyridin-1-yl)-N-(methylsulfonyl)benzamide] | < 100
O=C(NC1(C(=O)O)CC1)c1ccc(-n2ccc3cc(C(=O)N4CCC(F)(F)CC4)cnc32)cc1 [A-233] | < 100
O=C(NC1(C(=O)O)CC1)c1ccc(-n2ccc3cc(C(=O)N4CCC(F)(F)CC4)cnc32)cn1 [A-234, 1-(5-(5-(4,4-difluoropiperidine-1-carbonyl)-1H-pyrrolo[2,3-b]pyridin-1-yl)picolinamido)cyclopropane-1-carboxylic acid] | < 100
CC(C)(CC(=O)O)NC(=O)c1ccc(-n2ccc3cc(C(=O)N4CCC(F)(F)CC4)cnc32)cc1 [A-235] | < 100
O=C(O)[C@@H]1CCCN1C(=O)c1ccc(-n2ccc3cc(C(=O)N4CCC(F)(F)CC4)cnc32)cc1 [A-236] | < 100
CCC(CC)NC(=O)c1ccc(-n2ccc3cc(C(=O)N4CCC(F)(F)CC4)cnc32)cn1 [A-239, 5-(5-(4,4-difluoropiperidine-1-carbonyl)-1H-pyrrolo[2,3-b]pyridin-1-yl)-N-(pentan-3-yl) picolinamide] | < 100
CC(C)(C)CNC(=O)c1ccc(-n2ccc3cc(C(=O)N4CCC(F)(F)CC4)cnc32)cn1 [A-240, 5-(5-(4,4-difluoropiperidine-1-carbonyl)-1H-pyrrolo[2,3-b]pyridin-1-yl)-N-neopentylpicolinamide] | < 100
N#Cc1ccc(-n2ccc3cc(C(=O)N4CCC(F)(F)CC4)cnc32)cc1 [A-241, 4-(5-(4,4-difluoropiperidine-1-carbonyl)-1H-pyrrolo[2,3-b]pyridin-1-yl)benzonitrile] | < 100
N#Cc1ccc(-n2ccc3cc(C(=O)N4CCC(F)(F)CC4)cnc32)cc1O [A-243] | < 100
CC(C)(O)CCc1cc2cc(C(=O)N3CCC(F)(F)CC3)cnc2n1-c1ccc(C#N)cc1 [A-244, 4-(5-(4,4-difluoropiperidine-1-carbonyl)-2-(3-hydroxy-3-methylbutyl)-1H-pyrrolo[2,3-b]pyridin-1-yl)benzonitrile] | < 100
CC(C)(C)NC(=O)c1cncc(-n2ccc3cc(C(=O)N4CCC(F)(F)CC4)cnc32)c1 [A-246, N-(tert-butyl)-5-(5-(4,4-difluoropiperidine-1-carbonyl)-1H-pyrrolo[2,3-b]pyridin-1-yl)nicotinamide] | < 100
NC(=O)[C@@H]1CCCN1C(=O)c1ccc(-n2ccc3cc(C(=O)N4CCC(F)(F)CC4)cnc32)cc1 [A-248, (S)-1-(4-(5-(4,4-difluoropiperidine-1-carbonyl)-1H-pyrrolo[2,3-b]pyridin-1-yl)benzoyl)pyrrolidine-2-carboxamide] | < 100
O=C(c1ccc(-n2ccc3cc(C(=O)N4CCC(F)(F)CC4)cnc32)cc1)N(CCO)CCO [A-249] | < 100
O=C(c1cnc2c(ccn2-c2ccc(-c3nnn[nH]3)nc2)c1)N1CCC(F)(F)CC1 [A-250, (1-(6-(1H-tetrazol-5-yl)pyridin-3-yl)-1H-pyrrolo[2,3-b]pyridin-5-yl)(4,4-difluoropiperidin-1-yl)methanone] | < 100
O=C(c1cnc2c(ccn2-c2cncc(-c3nnn[nH]3)c2)c1)N1CCC(F)(F)CC1 [A-251, (1-(5-(1H-tetrazol-5-yl)pyridin-3-yl)-1H-pyrrolo[2,3-b]pyridin-5-yl)(4,4-difluoropiperidin-1-yl)methanone] | < 100
